PubChem BioAssay AID179 (DTP/NCI, 2004)
“And” between values parts separate entries of the source, which are not always exact repeats. Equal values may be shown once. The source made the active and inactive calls.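 Rule for the calls: active = compounds giving half or more protection of infected cells from virus-caused growth loss, again on retest; inactive = the rest.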 Where a SMILES comes first, the peptide text is derived from it. The star is where a group is joined. X11 = Clc1c(Cl)c(Cl)c(O*)c(Cl)c1Cl; Cbz = O=C(OCc1ccccc1)*; Boc = CC(C)(C)OC(=O)*; OBn = c1ccc(CO*)cc1; Bn = c1ccc(C*)cc1

System: CEM cells HIV-1 protection, formazan growth assay
Assay: NCI AIDS Antiviral Assay
Conditions: for IC50: measured here: growth of uninfected CEM cells
How it was run: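 Human CEM cells, uninfected and HIV-1-infected, received five drug concentrations, and growth was read by soluble formazan assay. Compounds giving at least 50% protection were retested; reproducible 100% protection defined confirmed active.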

SMILES | EC50 | IC50 | outcome
CC1C(c2ccccc2)SC(=N)N1C (stereo unspecified) | > 417 µM | 257 µM | 
COc1ccc(/C=C/C(=O)c2cc(Cl)cc(Cl)c2O)cc1OC | > 200 µM | 1.05 µM | 
CS1(=O)=N/C(=N\C(=O)Nc2ccccc2)c2ccccc21 (stereo unspecified) |  |  | inactive
COc1cc(CC2C(=O)OCC2[C@@H](OC(C)=O)c2ccc3c(c2)OCO3)c(Br)c(OC)c1OC (stereo partly specified) | > 50.1 µM | 43.7 µM | 
CC1CCC/C1=C(/I)C(=O)c1ccccc1 (stereo unspecified) | > 200 µM | 58.9 µM | 
O=C(/C=C/c1ccccc1)CCc1c(O)c2ccccc2oc1=O | > 112 µM | 97.7 µM | 
C/C(=N\O)c1ccccc1 |  |  | inactive
O=C1C=C2CC3=CC(=O)C=C(CC4=CC(=O)C=C(CC5=CC(=O)C=C(CC(=C1)C2=O)C5=O)C4=O)C3=O | > 53.7 µM | 0.912 µM | 
Cn1ccnc1CCc1ccc(Cl)cc1Cl | > 708 µM | 70.8 µM | 
O=S(=O)(N=[Se](=O)(c1ccccc1)c1ccccc1)c1ccccc1 | > 200 µM | 115 µM | 
CCC[CH2][Sn]1([CH2]CCC)[O]N=Cc2ccccc2[O]1 | > 14.1 µM | 0.437 µM | 
COc1ccc(C2c3cc4c(cc3OC(O)(CO)C2C(=O)O)OCO4)c(OC)c1OC (stereo unspecified) (tested in a mixture with another compound) |  |  | inactive
C=CCN1C(=O)CC(=O)N(NC2=NNC3(C(=O)N2)c2ccccc2-c2ccccc23)C1=S | > 200 µM | 79.4 µM | 
COc1cc(OC)c(-c2oc3ccccc3c(=O)c2O)c(OC)c1 |  |  | inactive
CC(=O)c1sc2c(c1OC(=O)c1ccco1)c(=O)n(-c1ccccc1)c(=S)n2-c1ccccc1 | > 200 µM | 9.77 µM | 
O=C(C[C@H](Cl)[C@H](NC(=O)OCc1ccccc1)C(=O)O)NO |  |  | inactive
CCN(CC)c1ccc(N=Nc2ccc(-c3nc4ccc[n+](C)c4o3)cc2)cc1 | > 2.04 µM | > 2.04 µM | 
COC(=O)C(CC(C)C)NC(=O)C(CCCN=C(N)N)NC(=O)OCc1ccccc1 (stereo not drawn) (Cbz-Arg-Leu-OMe; configuration not given here) | > 200 µM | > 200 µM | 
CC(C)CCCC(C)[C@H]1CCC2C3CC=C4C[C@@H](OP(=O)(O)OCCC=C(c5cc(Cl)c(O)c(C(=O)O)c5)c5cc(Cl)c(O)c(C(=O)O)c5)CC[C@]4(C)C3CC[C@@]21C (stereo partly specified) | > 100 µM | 38.9 µM | 
O=S(=O)(O)c1ccc(N=Nc2ccc(O)cc2O)cc1 | > 200 µM | 112 µM | 
O=C1CCCC/C1=C1\C(=O)Nc2cc(F)ccc21 | > 1020 µM | 107 µM | 

SMILES | EC50 | IC50 | outcome
COC(=O)CC(=O)Nc1sccc1S(=O)(=O)c1ccccc1 | > 200 µM | 102 µM | 
O=C1NC(=O)C(=Cc2ccc3c(c2)OCO3)C(=O)N1 | > 14.5 µM | > 14.5 µM | 
CC(C)(C)C1=CC(C)(n2[nH]c(=O)n(-c3ccccc3)c2=O)C=C(C(C)(C)C)C1=O | > 200 µM | 97.7 µM | 
O=C(/C(=C/c1ccccc1)c1ccccc1)N1c2ccccc2CC1c1c[nH]c2ccccc12 (stereo unspecified) | 0.38 µM | 8.51 µM | 
CCOC(=O)C#CCCOC1CCCCO1 (stereo unspecified) | > 138 µM | 112 µM | 
Nc1ncc(Sc2ccccc2C(=O)O)s1 | > 200 µM | > 200 µM | 
O=C1N=C2N=C(c3ccc(Cl)cc3)N(c3ccc(Cl)cc3)N2Sc2ccccc21 | > 11.2 µM | > 11.2 µM | 
CCOP(=O)(CCn1cc(C)c(=O)[nH]c1=O)OCC | > 871 µM | > 871 µM | 
COc1ccccc1-c1cc(=O)c2ccc(OC)c(OC)c2o1 | > 200 µM | 33.1 µM | 
COc1ccc(C2(Br)C(=O)NN=C2C)cc1 (stereo unspecified) | > 200 µM | 10.7 µM | 
O=c1c2cc([N+](=O)[O-])ccc2n2n1Cc1ccccc1C2 | > 200 µM | > 200 µM | 
Cc1ccc2ccc(-c3ccccc3)c3c2c1C(=O)c1ccccc1C3=O |  |  | inactive
CC(=O)OC1CCC2(C)C(C1)CC(OC(C)=O)C1C2CC(OC(C)=O)C2(C)C(C(C)CC=C(c3ccccc3)c3ccccc3)CCC12 (stereo unspecified) | > 7.94 µM | 5.01 µM | 
CCN(CC)C1Oc2cc3c(cc2C(c2cccc(OC)c2OC)C1C)OCO3 (stereo unspecified) | > 200 µM | 1.58 µM | 
Cc1ccc(NC(=O)CC(=O)N2N=C(N3CCCCC3)CC2c2ccccc2)cc1 (stereo unspecified) | > 200 µM | > 200 µM | 
O=c1cc(-c2ccccc2)oc2ccc(O)cc12 | > 200 µM | 67.6 µM | 
CN1C2CC(C#N)C1C=CC2=O (stereo unspecified) | > 200 µM | 32.4 µM and 107 µM | 
CCn1c(O)c(C=Nc2ccccc2)s/c1=N/Nc1ncc(CC(=O)Nc2ccccc2C)s1 | > 200 µM | 170 µM | 
O=C1C(c2ccccc2)=[N+]([O-])c2ccc(Cl)cc21 |  |  | inactive
Cn1cc/c(=N\N=c2/ccn(C)c3ccccc23)c2ccccc21 | > 115 µM | 5.01 µM | 
COc1ccc(-c2cc(-c3ccco3)c(C#N)c(=O)n2C2OC(OC(=O)c3ccccc3)C(OC(=O)c3ccccc3)C2OC(=O)c2ccccc2)cc1 (stereo unspecified) | > 7.24 µM | > 7.24 µM | 

SMILES | EC50 | IC50 | outcome
CC(CCC=C(c1cc(Cl)c(O)c(C(=O)O)c1)c1cc(Cl)c(O)c(C(=O)O)c1)C1CCC2C3CC[C@@H]4CCCC[C@]4(C)C3CC[C@]12C (stereo partly specified) | > 7.24 µM | > 7.24 µM | 
CC(C)CC(NC(=O)C(CCC(=O)OCc1ccccc1)NC(=O)OC(C)(C)C)C(=O)NC(COCc1ccccc1)C(=O)NC(Cc1ccccc1)C(=O)Oc1c(Cl)c(Cl)c(Cl)c(Cl)c1Cl (stereo unspecified) (Boc-E(OBn)LS(Bn)F-X11; configuration not given here) | > 200 µM | 38.9 µM | 
c1ccc2[nH]c3[nH]c4[nH]c5ccccc5[nH]c4[nH]c3[nH]c2c1 | > 50.1 µM | > 50.1 µM | 
O=C(c1ccc(Cl)cc1Cl)C1[C@H]2C(=O)N(c3ccc(Cc4ccc(N5C(=O)[C@@H]6ON(c7ccccc7)C(C(=O)c7ccc(Cl)cc7Cl)[C@@H]6C5=O)cc4)cc3)C(=O)[C@H]2ON1c1ccccc1 (stereo partly specified) | > 38 µM | > 38 µM | 
COC(=O)c1nc(N)[nH]c(=O)c1-c1ccc(Cl)cc1 | 251 µM | 891 µM | 
O=c1c(Nc2ccccc2)cn(CCOc2ccc(Cl)cc2)c(=O)n1CCOc1ccc(Cl)cc1 | > 200 µM | 145 µM | 
O=C1OCC2=Nc3cccc4cccc(c34)N12 | > 0.676 µM | 0.331 µM | 
C=[N+]([O-])CC[C@@]1(O)C[C@H](n2ccc(=O)[nH]c2=O)O[C@@H]1CO[Si](C)(C)C(C)(C)C | > 200 µM | 44.7 µM | 
Cn1c2ccccc2c(=NNc2ccc(S(N)(=O)=O)cc2)c2ccccc21 | > 200 µM | 17.4 µM | 
c1ccc(SCN2CCN(CSc3ccccc3)CC2)cc1 | > 30.2 µM | 5.75 µM | 
CCc1nc(N)nc(N)c1-c1ccc(Cl)c(N=NN(C)C)c1 | > 1 µM | 0.589 µM | 
CCOC(=O)/C=C1\Nc2ccccc2C(c2ccccc2)=NC1OC(C)=O (stereo unspecified) | > 20 µM | > 20 µM | 
Cc1cn(C2CC(O)C(COC(=O)CCCCCCCCCCCBr)O2)c(=O)[nH]c1=O (stereo unspecified) | 29.5 µM | 51.3 µM | 
Cc1nn2c(nnn2CCO)c1-c1ccccc1 | > 1020 µM | 407 µM | 
O=C1CSC(c2ccccc2O)N1c1ccc(Oc2ccc(Cl)cc2)c(Cl)c1 (stereo unspecified) | > 100 µM | 24 µM | 
CC(C)(C)C1CCC2c3c([nH]c4ccccc34)C3C(=O)N(c4ccc(Br)cc4)C(=O)C3C2C1 (stereo unspecified) | > 14.5 µM | > 14.5 µM | 
Nc1ncnc2c1ncn2C1OC(C(O)CO)C(O)C1O (stereo unspecified) | > 200 µM | > 200 µM | 
O=C(Cc1nc2ccccc2s1)C(=O)Nc1ccc(Cl)cc1Cl |  |  | inactive
COC(=O)C(Cc1c[nH]c2ccccc12)NC(=O)C(Cc1c[nH]c2ccccc12)NC(=O)C(Cc1c[nH]c2ccccc12)NC(=O)OC(C)(C)C (stereo not drawn) (Boc-Trp-Trp-Trp-OMe; configuration not given here) | > 200 µM | 29.5 µM | 
CC(=O)OC(C)(C)/C=C/C(=O)[C@](C)(O)[C@H]1[C@H](O)C[C@@]2(C)[C@@H]3CC=C4[C@@H](C[C@H](O)C(=O)C4(C)C)[C@]3(CO)C(=O)C[C@]12C | > 4.37 µM | 0.129 µM | 
COc1ccc(-c2coc3c(OC)c(OC)c(OC)c(OC)c3c2=O)cc1 | > 200 µM | 44.7 µM | 

SMILES | EC50 | IC50 | outcome
O=S(O)CCCSSSCCCS(=O)O |  |  | inactive
O=C(/C=C/C(=O)N1CCCC1)N1CCCC1 | > 200 µM | > 200 µM | 
O=C1/C(=C/c2ccc(Cl)c(Cl)c2)CNC/C1=C\c1ccc(Cl)c(Cl)c1 | > 16.2 µM | 8.71 µM | 
NNC(=S)N/N=C(/C(=O)Nc1cc(Cl)ccc1Cl)C1C(=O)Nc2ccccc2S1=O (stereo unspecified) | > 513 µM | 257 µM | 
Cc1cccc(Nc2cn(CCOc3ccccc3)c(=O)[nH]c2=O)c1 | > 200 µM | 27.5 µM | 
Cc1cccc(C(C)(C)C)c1NC(=O)C(=O)C(C(=O)/C=C\c1ccccc1)C1OC(=O)c2ccccc21 (stereo unspecified) | > 214 µM | 58.9 µM | 
C=CCn1c(-c2ccccc2)nn(CC(=O)Nn2c(C)nc3ccccc3c2=O)c1=S |  |  | inactive
CS(=O)(=O)NC(=O)C[P+](c1ccccc1)(c1ccccc1)c1ccccc1 | > 200 µM | > 200 µM | 
O=c1[nH]c(=O)n(C2CCC(COP(=O)(O)O)O2)cc1Cc1ccccc1 (stereo unspecified) | > 468 µM | > 468 µM | 
COc1ccc(Oc2c(OC)cc(NCCCCCN3C(=O)c4ccccc4C3=O)c3ncccc23)cc1 | > 100 µM | > 100 µM | 
CCCCCCCCCCCCCCCC[N+](C)(C)Cc1ccc(C[N+](C)(C)CCCCCCCCCCCCCCCC)cc1 |  |  | inactive
COc1ccc(OC)c2c(C(=O)O)c(Cc3ccccc3)ccc12 |  |  | inactive
O=C1c2cccc3cccc(c23)C(=O)N1CCNCCN1C(=O)c2cccc3cccc(c23)C1=O | > 29.5 µM | 10.5 µM | 
Cn1c(N)c(N=Nc2ccc(S(=O)(=O)Nc3ccccn3)cc2)c(=O)n(C)c1=O |  |  | inactive
O/N=C1/CCCCCC1NO (stereo unspecified) | > 200 µM | > 200 µM | 
CN(C)/C=C/c1ccncc1 | > 200 µM | 145 µM | 
N#Cc1nc(-c2ccco2)oc1N | > 200 µM | > 200 µM | 
O=C(Nc1ccc(C(=O)Nc2ccc(C3=NCCCN3)cc2)cc1)Nc1ccc(C2=NCCCN2)cc1 | > 200 µM | 17 µM | 
NC(CCC(=O)NCCCC(=O)O)C(=O)O (stereo unspecified) | > 85.1 µM | > 85.1 µM | 
